In PMC9471048, “The signaling and selectivity of α‐adrenoceptor agonists for the human α2A, α2B and α2C‐adrenoceptors and comparison with human α1 and β‐adrenoceptors” (Pharmacology Research & Perspectives, 2022):
Where two headings read alike, the source gives them in different places.

Tests used:
human α2A‐adrenoceptor [1] = biological target: T1, human α2A‐adrenoceptor (Homo sapiens, UniProt P08913); conditions: for % inhibition, CRE-SPAP (with forskolin): from 3 μM forskolin control; for % inhibition, CRE‐SPAP (with forskolin): % inhibition from the 3 μM forskolin control, inhibition only
T1 sequence (P08913 1-465): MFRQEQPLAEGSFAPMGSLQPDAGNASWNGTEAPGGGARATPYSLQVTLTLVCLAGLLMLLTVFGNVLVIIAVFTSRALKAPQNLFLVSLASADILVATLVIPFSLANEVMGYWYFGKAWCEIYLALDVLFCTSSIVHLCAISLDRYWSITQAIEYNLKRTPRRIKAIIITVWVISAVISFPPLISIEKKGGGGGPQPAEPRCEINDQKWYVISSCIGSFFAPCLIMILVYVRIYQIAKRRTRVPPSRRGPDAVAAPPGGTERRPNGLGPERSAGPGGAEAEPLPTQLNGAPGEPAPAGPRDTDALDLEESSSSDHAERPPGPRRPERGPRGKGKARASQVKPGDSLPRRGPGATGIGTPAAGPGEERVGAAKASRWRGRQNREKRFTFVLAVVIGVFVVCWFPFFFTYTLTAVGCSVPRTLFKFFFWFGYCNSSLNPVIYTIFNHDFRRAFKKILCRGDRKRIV

human α2C‐adrenoceptor [2] = biological target: T2, human α2C‐adrenoceptor (Homo sapiens, UniProt P18825)
T2 sequence (P18825 1-462): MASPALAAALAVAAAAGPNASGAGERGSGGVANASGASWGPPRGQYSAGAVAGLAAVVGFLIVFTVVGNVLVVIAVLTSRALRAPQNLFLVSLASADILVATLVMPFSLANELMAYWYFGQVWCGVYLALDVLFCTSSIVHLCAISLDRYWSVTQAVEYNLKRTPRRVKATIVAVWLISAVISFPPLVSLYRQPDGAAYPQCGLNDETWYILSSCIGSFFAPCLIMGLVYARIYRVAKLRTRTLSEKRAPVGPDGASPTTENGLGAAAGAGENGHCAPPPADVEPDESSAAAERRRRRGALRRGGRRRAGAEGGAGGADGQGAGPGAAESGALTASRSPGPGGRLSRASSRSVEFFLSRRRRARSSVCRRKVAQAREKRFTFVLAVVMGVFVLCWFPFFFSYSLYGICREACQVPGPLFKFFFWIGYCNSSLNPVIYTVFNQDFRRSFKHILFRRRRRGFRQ

human α2A‐adrenoceptor [3] = biological target: T1, human α2A‐adrenoceptor; test: 3H‐rauwolscine whole cell binding in CHO‐α2A cells; design: expressed in transfected cells; host or cells: CHO-K1 with CRE-SPAP reporter
human α2C‐adrenoceptor [4] = biological target: T2, human α2C‐adrenoceptor; test: 3H‐rauwolscine whole cell binding in CHO‐α2C cells; design: expressed in transfected cells; host or cells: CHO-K1 with CRE-SPAP reporter
human α2A‐adrenoceptor [5] = biological target: T1, human α2A‐adrenoceptor; test: ERK1/2‐phosphorylation in CHO‐α2A cells; format: cell-based; design: expressed in transfected cells; host or cells: CHO-K1 with CRE-SPAP reporter
human α2C‐adrenoceptor [6] = biological target: T2, human α2C‐adrenoceptor; test: ERK1/2‐phosphorylation in CHO‐α2C cells; format: cell-based; design: expressed in transfected cells; host or cells: CHO-K1 with CRE-SPAP reporter
[7] = CHO‐α2A (cell line 1), absence of forskolin
[8] = CHO‐α2A, binding KD / Gi IC50 of CRE‐SPAP
[9] = Log IC50 (Gi), CRE‐SPAP (with forskolin), CHO‐α2A (cell line 1, 5830 fmol/mg protein), 3 μM forskolin
[10] = CHO‐α2C cells, % inhibition from the 3 μM forskolin control, mean ± SEM
[11] = CHO‐α2C cells, CRE‐SPAP production in the absence of forskolin
[12] = CHO‐α2C cells, log KD from 3H‐rauwolscine binding versus CRE‐SPAP log IC50
[13] = Log IC50 (Gi), CRE‐SPAP (with forskolin), CHO‐α2C cells, inhibition of 3 μM forskolin‐stimulated CRE‐SPAP production, given as negative log IC50, mean ± SEM
[14] = 3H‐rauwolscine whole cell binding, living cells, negative log KD, mean ± SEM, read-out: Log KD, CHO‐α2A (converted)
[15] = CHO‐α2A, 3H‐rauwolscine whole cell binding, given as negative log KD, read-out: Log KD (binding) (converted)
[16] = fold, from KD values, 1 = no selectivity
[17] = 3H‐rauwolscine whole cell binding, living cells, negative log KD, mean ± SEM, read-out: Log KD, CHO‐α2C (converted)
[18] = CHO‐α2C cells, 3H‐rauwolscine whole cell binding, given as negative log KD, mean only (SEM in Table 4), read-out: Log KD (converted)
[19] = CHO‐α2A, maximum response compared to 10 μM PDBu
[20] = CHO‐α2A, read-out: Log EC50, ERK1/2‐phosphorylation (converted)
[21] = CHO‐α2C cells, maximum response compared to 10 μM PDBu, mean ± SEM
[22] = CHO‐α2C cells, given as negative log EC50, mean ± SEM, read-out: Log EC50, ERK1/2‐phosphorylation (converted)
[23] = 3H‐rauwolscine whole cell binding, ^app: apparent KD, IC50 from extrapolated curve as not all specific binding was inhibited, read-out: Log KD (apparent), CHO‐α2A (converted)

Structure (SMILES)	% inhibition, CRE‐SPAP (with forskolin) (human α2A‐adrenoceptor [1]; CHO‐α2A (cell line 1))	Log EC50 (Gs), CRE‐SPAP (without forskolin) (human α2A‐adrenoceptor [1]; [7])	Log efficacy ratio (KD/IC50) (human α2A‐adrenoceptor [1]; [8])	IC50 (human α2A‐adrenoceptor [1]; [9])	% inhibition, CRE‐SPAP (with forskolin) (human α2C‐adrenoceptor [2]; [10])	Log EC50 (Gs), CRE‐SPAP (without forskolin) (human α2C‐adrenoceptor [2]; [11])	Log efficacy ratio (KD/IC50) (human α2C‐adrenoceptor [2]; [12])	IC50 (human α2C‐adrenoceptor [2]; [13])	Kd (human α2A‐adrenoceptor [3]; [14])	Kd (human α2A‐adrenoceptor [3]; [15])	Selectivity ratio α2A vs α2B (higher affinity for α2A) (human α2A‐adrenoceptor [3]; [16])	Selectivity ratio α2A vs α2C (higher affinity for α2A) (human α2A‐adrenoceptor [3]; [16])	Kd (human α2C‐adrenoceptor [4]; [17])	Kd (human α2C‐adrenoceptor [4]; [18])	Selectivity ratio α2B vs α2C (higher affinity for α2C) (human α2C‐adrenoceptor [4]; [16])	% 10 μM PDBu, ERK1/2‐phosphorylation (human α2A‐adrenoceptor [5]; [19])	EC50 (human α2A‐adrenoceptor [5]; [20])	% 10 μM PDBu, ERK1/2‐phosphorylation (human α2C‐adrenoceptor [6]; [21])	EC50 (human α2C‐adrenoceptor [6]; [22])	IC50 (human α2A‐adrenoceptor [1])	other results
c1ccc2c(CC3=NCCN3)cccc2c1 [Naphazoline]	83.1 ± 3.6%	No response	0.78	0.0162 µM	81.3 ± 4.2%	No response	0.72	0.0759 µM	0.0977 µM	0.0977 µM	16.2	4.1	0.398 µM	0.398 µM	4.0	118.1 ± 9.0%	0.00191 µM	157.8 ± 12.6%	0.0126 µM		% inhibition, CRE-SPAP (with forskolin) (human α2A‐adrenoceptor [1]; CHO-α2A cell line 2, 4724 fmol/mg protein): 69.4 ± 5.8%; % inhibition, CRE-SPAP (with forskolin) (human α2A‐adrenoceptor [1]; CHO-α2A cell line 3, 121 fmol/mg protein): 24.8 ± 4.3%; IC50 (human α2A‐adrenoceptor [1]; Log IC50 (Gi), CRE-SPAP (with forskolin), CHO-α2A cell line 2, expression 4724 fmol/mg protein, 3 μM forskolin): 0.0575 µM; IC50 (human α2A‐adrenoceptor [1]; Log IC50 (Gi), CRE-SPAP (with forskolin), CHO-α2A cell line 3, expression 121 fmol/mg protein, 3 μM forskolin): 0.417 µM
c1ccc2c(c1)CCCC2C1=NCCN1 (stereo not shown) [Tetrahydrozoline]	69.3 ± 7.2%	No response	1.18	0.0214 µM	60.7 ± 3.2%	No response	0.40	0.339 µM	0.324 µM	0.324 µM	17.4	2.6	0.851 µM	0.851 µM	6.6	123.0 ± 12.8%	0.00363 µM	139.6 ± 19.8%	0.126 µM		
c1ccc(C2CC2)c(OCC2=NCCN2)c1 [Cirazoline]	43.6 ± 4.4%	No response	−0.16		74.2 ± 2.1%	No response	0.41	0.331 µM	0.417 µM	0.417 µM	16.2	2.0	0.851 µM	0.851 µM	7.9	113.0 ± 14.3%	0.158 µM	139.1 ± 10.2%	0.0832 µM	0.603 µM	
NCC(O)c1ccc(O)cc1 (stereo not shown) [Octopamine]	98.1 ± 5.7%	No response			86.3 ± 5.2%	No response				417 µM						124.1 ± 11.7%	4.79 µM	153.8 ± 17.9%	7.76 µM	132 µM	IC50 (human α2C‐adrenoceptor [2]): 52.5 µM; Kd (human α2A‐adrenoceptor [3]; [23]): 417 µM; IC50 (human α2C‐adrenoceptor [4]; 3H‐rauwolscine whole cell binding, no KD obtained, read-out: IC50 in binding, CHO‐α2C): ~1000 µM
Cc1cccc(C)c1N=C1NCCCS1 [Xylazine]																				0.288 µM	EC50 (human α2A‐adrenoceptor [1]): 8.51 µM; Log EC50 (Gs), CRE‐SPAP (without forskolin) (human α2A‐adrenoceptor [1]): No response; Log efficacy ratio (KD/IC50) (human α2A‐adrenoceptor [1]): 1.60; % inhibition, CRE‐SPAP (with forskolin) (human α2C‐adrenoceptor [2]): 81.8 ± 3.6%; IC50 (human α2C‐adrenoceptor [2]): 0.178 µM; Log EC50 (Gs), CRE‐SPAP (without forskolin) (human α2C‐adrenoceptor [2]): No response; Log efficacy ratio (KD/IC50) (human α2C‐adrenoceptor [2]): 1.53; Kd (human α2A‐adrenoceptor [3]): 11.5 µM; Kd (human α2A‐adrenoceptor [3]; Log KD, CHO‐α2A): 11.5 µM; Kd (human α2C‐adrenoceptor [4]): 6.03 µM; Selectivity ratio α2A vs α2C (higher affinity for α2C) (human α2C‐adrenoceptor [4]): 1.9; Selectivity ratio α2B vs α2C (higher affinity for α2C) (human α2C‐adrenoceptor [4]): 1.0; Kd (human α2C‐adrenoceptor [4]; Log KD, CHO‐α2C): 6.03 µM; % 10 μM PDBu, ERK1/2‐phosphorylation (human α2A‐adrenoceptor [5]): 128.3 ± 15.7%; EC50 (human α2A‐adrenoceptor [5]): 0.0302 µM; % 10 μM PDBu, ERK1/2‐phosphorylation (human α2C‐adrenoceptor [6]): 168.2 ± 22.8%; EC50 (human α2C‐adrenoceptor [6]): 0.0724 µM
CCNCC(O)c1cccc(O)c1 (stereo not shown) [Etilefrine]	101.3 ± 4.6%	No response	0.61	47.9 µM	86.2 ± 7.2%	No response	1.01	12 µM		195 µM	2.1			123 µM	3.4	150.8 ± 10.2%	3.24 µM	182.2 ± 9.6%	3.16 µM		Kd (human α2A‐adrenoceptor [3]; [23]): 195 µM; Kd (human α2C‐adrenoceptor [4]; 3H‐rauwolscine whole cell binding, ^app: apparent KD, IC50 from extrapolated curve as not all specific binding was inhibited, read-out: Log KD (apparent), CHO‐α2C (converted)): 123 µM; Selectivity ratio α2A vs α2C (higher affinity for α2C) (human α2C‐adrenoceptor [4]; [16]): 1.6
CN[C@@H](C)[C@H](O)c1ccccc1 [Ephedrine]																					Log EC50 (Gs), CRE‐SPAP (without forskolin) (human α2A‐adrenoceptor [1]): No response; Log IC50 (Gi), CRE‐SPAP (with forskolin) (human α2A‐adrenoceptor [1]): No response; Log EC50 (Gs), CRE‐SPAP (without forskolin) (human α2C‐adrenoceptor [2]): No response; Log IC50 (Gi), CRE‐SPAP (with forskolin) (human α2C‐adrenoceptor [2]): No response; Kd (human α2A‐adrenoceptor [3]): 34.7 µM; Selectivity ratio α2A vs α2B (higher affinity for α2A) (human α2A‐adrenoceptor [3]): 4.2; Selectivity ratio α2A vs α2C (higher affinity for α2A) (human α2A‐adrenoceptor [3]): 1.1; Kd (human α2A‐adrenoceptor [3]; Log KD, CHO‐α2A): 34.7 µM; Kd (human α2C‐adrenoceptor [4]): 39.8 µM; Selectivity ratio α2B vs α2C (higher affinity for α2C) (human α2C‐adrenoceptor [4]): 3.6; Kd (human α2C‐adrenoceptor [4]; Log KD, CHO‐α2C): 39.8 µM; % 10 μM PDBu, ERK1/2‐phosphorylation (human α2A‐adrenoceptor [5]): 123.1 ± 17.3%; EC50 (human α2A‐adrenoceptor [5]): 16.6 µM; % 10 μM PDBu, ERK1/2‐phosphorylation (human α2C‐adrenoceptor [6]): 88.0 ± 12.5%; EC50 (human α2C‐adrenoceptor [6]): 33.1 µM
CC(CCc1ccc(O)cc1)NCCc1ccc(O)c(O)c1 (stereo not shown) [Dobutamine]		No response				No response							5.5 µM	5.5 µM			2 µM		0.759 µM		Log IC50 (Gi), CRE‐SPAP (with forskolin) (human α2A‐adrenoceptor [1]; CHO‐α2A (cell line 1, 5830 fmol/mg protein), 3 μM forskolin): No response; IC50 (human α2C‐adrenoceptor [2]): 20.9 µM; Kd (human α2A‐adrenoceptor [3]; read-out: Log KD (binding) (converted)): 20.4 µM; Kd (human α2A‐adrenoceptor [3]; read-out: Log KD, CHO‐α2A (converted)): 20.4 µM
